# According to paper PMC9945734 (BMC Medicine, 2023):
# Test system: PC-3-KQ-Luc cells
# Experiment: Bone metastasis assay, therapy mode
# Assay type: in vivo, Balb/c nude mice
# Protocol: Male Balb/c nude mice at 3-4 weeks old were purchased from Charles River (Beijing, China). Upon arrival at the Animal Center of the Southern University of Science and Technology (SUSTech), mice were quarantined for one week before use. All mice were maintained and handled following the National Institutes of Health guide for the Care and Use of Laboratory Animals. […] The tumor growth and body weight were measured each week. […] Tumor growth in the bone was determined once a week by in vivo BL imaging using the Living Image Software 4.4 (IVIS Spectrum, PerkinElmer Health Sciences, Massachusetts, USA). Ten minutes after intraperitoneal injection of D-luciferin sodium salt (15 mg/mL, 10 μL/g BW) (GM-040611, Genomeditech, Shanghai, China), bioluminescence images were acquired with the following conditions: open emission filter, exposure time = 60 s, binning = medium: 8, field of view = 12.9 ×12.9 cm, and f/stop = 1. Images were then analyzed using the Living Image 4.4 software (PerkinElmer). At the end of treatment, bioluminescence intensities were measured by photon flux of the region of interest (ROI) and compared between the vehicle and NTZ treatment groups. […] CC0113, […] Biotechnology, Beijing, China) was used as vehicle control, and NTZ was solved in CMC. NTZ was delivered into mice via intragastric administration (100 mg/kg BW) every day. After the sacrifice of mice, hind limbs were removed and fixed in 4% paraformaldehyde for 48 h. Limbs were then scanned using a micro-CT scanner (Skyscan1276, Bruker, Kontich, Belgium). For micro-CT imaging, the scan parameters were: source voltage, 60 kV; source current, 100 μA; AI 0.5 mm filter; pixel size, 10 μm; rotation step, 0.4 degrees. The images were then processed and constructed using the NRecon software (Version 1.7.1.6, Bruker) and converted using […] (Version 1.5.4, Bruker). The region of interest (ROI), set at 0.5 mm from the femur growth plate, was analyzed using the CT-Analyser (CTAn) program. Parameters included bone volume/total volume (BV/TV), trabecular number (Tb.N), trabecular separation (Tb.Sp), and trabecular thickness (Tb.Th). Finally, the 3D images were performed in CTvox software (Version 2.0, Bruker). Femurs were decalcified in ethylenediaminetetraacetic (EDTA) decalcification solution (Cat #: R20403-5L, OKA, Beijing, China) for 14-21 days. After decalcification, bone tissues were dehydrated in gradient ethanol from 70 to 95%, soaked in n-butanol for 6 h, and then embedded in paraffin. Tissue blocks were cut into 4 μm sections. After baking in an oven at 63°C for 1.5 h, tissue slides were deparaffinized with xylene, hydrated with gradient ethanol, and then stained with H&E (Cat #: BA4025, BaSO, Zhuhai, China). Slides were then mounted for analysis with neutral resins (Cat #: 25608-33-7, Sigma-Aldrich, MO, USA).
# [1] = 100 mg/kg intragastric every day
compound,measurement,setting,value
CC(=O)Oc1ccccc1C(=O)Nc1ncc([N+](=O)[O-])s1 [Nitazoxanide],bone lesions (micro-CT),[1],significantly reduced such lesions
same,tumor area in the bone (H&E),[1],significantly reduced the tumor area
same,BV/TV,micro-CT of femurs,significantly increased
same,Tb. N,micro-CT of femurs,significantly increased
same,Tb. Sp,micro-CT of femurs,potently decreased
same,Tb. Th,micro-CT of femurs,significantly increased
same,bioluminescence intensities,"treatment from day 7 for 4 weeks, 100 mg/kg intragastric every day",sharply decreased bioluminescence intensities
